Patent US12060330B2, “Therapeutic indazoles” (priority 2017, dated 2024)
In brackets after ≈: the same amount, converted by molar mass.

What was measured:
[1] = test system: M. tuberculosis; test: Lung CFU in infected mice (FIG. 10, PMID: 25421483); assay type: in vivo; settings: compared to INH and vehicle only
[2] = test system: M. tuberculosis; test: Killing studies using CFU measurements; assay type: cell-based
[3] = test system: M. tuberculosis H37Rv; test: RNAseq transcriptional profiling; assay type: cell-based; settings: single drug, 10× MIC, 4 h
[4] = biological target: CYP2C19 (Homo sapiens, UniProt P33261); test: Cytochrome P450 (CYP) inhibition; assay type: in vitro ADME
[5] = Dose escalation and drug tolerability in mice; assay type: in vivo
Procedure: All animal experiments were conducted in compliance with and approved by the Institutional Animal Care and Use Committee of the New Jersey Medical School, Rutgers University.
The mice were weighed and observed daily. Their behavior, drinking and feeding patterns, and feces were monitored and recorded. Upon necropsy, liver, gall bladder, kidney and spleen pathology were observed as well.

[6] = Caco-2 permeability; settings: human
[7] = test system: CYP enzymes; test: Cytochrome P450 (CYP) inhibition; settings: CYP enzymes except CYP2C19
[8] = test system: M. fortuitum; test: MIC against nontuberculous mycobacteria
[9] = Mouse pharmacokinetic studies (plasma, LC-MS/MS); assay type: in vivo; settings: mice
Procedure: DG1167 levels in plasma were measured by LC-MS/MS in electrospray positive-ionization mode (ESI+) on a Sciex Qtrap 4000 triple-quadrupole mass combined with an Agilent 1260 HPLC using Analyst software. […] Multiple-reaction monitoring (MRM) of parent/daughter transitions in electrospray positive-ionization mode (ESI+) was used to quantify DG167. […] Extracts were vortexed for 5 minutes and centrifuged at 4000 RPM for 5 minutes. The supernatants were analyzed by LC-MS. Verapamil IS was sourced from Sigma-Aldrich.

[10] = Kinetic solubility; settings: pH 7.4 phosphate-buffered saline (PBS)
[11] = test system: mycolic acid biosynthesis; assay type: cell-based, M. tuberculosis
[12] = biological target: KasA (Mycobacterium tuberculosis, UniProt P9WQD9); test: Microscale thermophoresis (MST) binding assay; parameters: species or system M. tuberculosis; settings: for EC50: read-out: EC50 (KasA interaction)
[13] = test system: M. avium; test: MIC against nontuberculous mycobacteria
[14] = test system: M. abscessus; test: MIC against nontuberculous mycobacteria
[15] = test system: M. smegmatis; test: MIC against nontuberculous mycobacteria
[16] = Mouse liver microsome (MLM) stability
[17] = test system: M. marinum; test: MIC against nontuberculous mycobacteria
[18] = test system: M. tuberculosis; test: microbe, parasite or virus in culture; assay type: cell-based; settings: for whole-cell activity (in words): SAR relative to DG167; for increase in potency over DG167: relative to DG167
[19] = test system: M. tuberculosis; settings: cited from earlier work

KasA, sequence (P9WQD9 whole entry): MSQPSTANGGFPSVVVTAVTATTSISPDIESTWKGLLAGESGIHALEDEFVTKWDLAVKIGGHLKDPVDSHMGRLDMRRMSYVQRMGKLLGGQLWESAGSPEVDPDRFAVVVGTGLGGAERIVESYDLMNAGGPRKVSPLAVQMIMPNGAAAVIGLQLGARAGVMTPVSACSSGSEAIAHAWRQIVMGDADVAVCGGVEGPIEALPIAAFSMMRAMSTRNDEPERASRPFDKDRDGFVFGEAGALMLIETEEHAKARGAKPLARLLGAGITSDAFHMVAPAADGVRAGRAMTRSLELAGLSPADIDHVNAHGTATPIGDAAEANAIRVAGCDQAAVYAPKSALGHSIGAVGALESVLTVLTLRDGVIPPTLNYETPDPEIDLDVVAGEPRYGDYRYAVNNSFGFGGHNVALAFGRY
CYP2C19, sequence (P33261 whole entry, species assumed): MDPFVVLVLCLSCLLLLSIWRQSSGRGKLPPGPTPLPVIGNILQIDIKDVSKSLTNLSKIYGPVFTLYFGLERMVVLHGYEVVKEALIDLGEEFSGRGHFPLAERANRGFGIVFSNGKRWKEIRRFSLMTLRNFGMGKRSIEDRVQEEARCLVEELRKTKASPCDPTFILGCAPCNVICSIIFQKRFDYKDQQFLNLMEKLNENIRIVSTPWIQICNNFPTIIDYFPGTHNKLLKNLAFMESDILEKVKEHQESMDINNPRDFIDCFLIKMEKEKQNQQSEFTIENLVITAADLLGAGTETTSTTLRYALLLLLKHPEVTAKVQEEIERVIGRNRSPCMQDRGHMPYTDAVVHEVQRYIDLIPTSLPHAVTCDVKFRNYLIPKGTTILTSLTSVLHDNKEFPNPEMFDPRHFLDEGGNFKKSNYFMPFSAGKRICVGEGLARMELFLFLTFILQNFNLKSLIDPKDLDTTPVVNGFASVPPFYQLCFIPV

Cc1n[nH]c2ccc(NS(=O)(=O)CCCCF)cc12 [Example 43, 4-Fluoro-N-(3-methyl-1H-indazol-5-yl)butane-1-sulfonamide]
M. tuberculosis colony-forming units in the lungs [1]: reduction of M. tuberculosis colony-forming units in the lungs

NNC(=O)c1ccncc1 [INH, isoniazid, reference compound]
killing pattern (in words) ([2]; 10× MIC of each drug): rapid reduction of viable CFU followed by rapid re-growth
gene expression change (in words) [3]: strongly induced expression of kasA, kasB, acpM genes, the iniBAC operon

CCCCS(=O)(=O)Nc1ccc2cnn(C)c2c1 [DG167, N-(1-methyl-1H-indazol-6-yl)butane-1-sulfonamide]
IC50 [4]: 12000 nM
tolerability, dose escalation ([5]; 50 and 100 mg/kg, monitored 8 hours): well tolerated
dose tolerability for 5 d ([5]; 5 d, DG167 50 or 100 mg/kg, or DG167 100 mg/kg with INH 25 mg/kg): did not show any behavioral changes or weight loss
tolerability, dose escalation ([5]; higher doses (250, 500 mg/kg)): heavy breathing, hunched posture and decreased activity
reduction of viable colony-forming units (CFU) ([2]; 10× or 20× MIC, over seven days): 2 log 10
Papp A→B [6]: 71.8 ×10⁻⁶ cm/s
Papp B→A [6]: 45.6 ×10⁻⁶ cm/s
CYP inhibition (in words) [7]: did not significantly inhibit
gene expression change (in words) [3]: strongly induced expression of kasA, kasB, acpM genes, the iniBAC operon
MIC [8]: > 100 µM
half-life (t1/2) ([9]; IV 5 mg/kg): 19.8 min
AUC [0-t] ([9]; IV 5 mg/kg, 5% DMA/40% PEG300/55% D5W): 1751.25 ng·h/mL
AUC [0-t] ([9]; PO 25 mg/kg, 0.5% CMC/0.5% Tween 80, plasma): 8083.96 ng·h/mL
time plasma levels maintained above the MIC ([9]; single oral dose 25 mg/kg): over 4 hours
AUC [0-t] ([9]; single oral dose 25 mg/kg, plasma): 8083.96 h*ng/m
kinetic solubility [10]: 324 µM (≈ 86.6 µg/mL)
accumulation of FAS-I products [11]: caused accumulation of C16-C26 short-chain fatty-acids
EC50 [12]: 131 ± 18.2 nM
MIC [13]: > 100 µM
MIC [14]: > 100 µM
MIC [15]: > 100 µM
MLM t1/2 ([16]; in the absence of NADPH): > 300 min
MLM t1/2 ([16]; mouse liver microsomes): 10.1 min
MIC [17]: > 100 µM

CCCCS(=O)(=O)Nc1ccc2[nH]nc(C)c2c1 [Example 41, N-(3-methyl-1H-indazol-5-yl)butane-1-sulfonamide]
Kd [12]: 46.5 ± 18.7 nM
improvement over DG167 in MIC / whole-cell activity [18]: 2 ×

[2H]C([2H])([2H])n1ncc2ccc(NS(=O)(=O)CCCCC)cc21 [Example 30, N-(1-(methyl-d3)-1H-indazol-6-yl)pentane-1-sulfonamide]
whole-cell activity (in words) [18]: increased the activity over the parent by twofold
increase in potency over DG167 [18]: 2 fold

CCCCS(=O)(=O)N(C)c1ccc2cnn(C)c2c1 [Example 32, N-methyl-N-(1-methyl-1H-indazol-6-yl)butane-1-sulfonamide]
whole-cell activity (in words) [18]: loss of activity

C=C/C(C)=C/[C@@]1(C)SC(=O)C(C)=C1O [thiolactomycin]
whole-cell activity in M. tuberculosis [19]: 142 µM

CCCCNC(=S)Nc1ccc2cnn(C)c2c1 [Example 33, 1-Butyl-3-(1-methyl-1H-indazol-6-yl)thiourea]
MIC ([18]; Mycobacterium tuberculosis, whole-cell): 3.1 µM (≈ 0.813 µg/mL)
whole-cell activity (in words) [18]: loss of activity

CCCCCS(=O)(=O)Nc1ccc2cnn(C)c2c1 [Example 11, N-(1-methyl-1H-indazol-6-yl)pentane-1-sulfonamide]
whole-cell activity (in words) [18]: increased the activity over the parent by twofold
increase in potency over DG167 [18]: 2 fold

CCCCCCS(=O)(=O)Nc1ccc2cnn(C)c2c1 [Example 12, N-(1-methyl-1H-Indazol-6-yl)hexane-1-sulfonamide]
whole-cell activity (in words) [18]: inactive

CC12C[C@@]34C=CC(=O)[C@@](C)(CCC(=O)Nc5c(O)ccc(C(=O)O)c5O)C3[C@H](CC1C4)O2 (stereo partly drawn) [platensimycin]
whole-cell activity in M. tuberculosis [19]: 27 µM

CCCCS(=O)(=O)Nc1ccc2cn[nH]c2c1 [Example 1, N-(1H-indazol-6-yl)butane-1-sulfonamide]
inhibition of mycolic acid biosynthesis [11]: did not show any inhibition
EC50 [12]: 1740 ± 221 nM

[2H]C([2H])([2H])n1ncc2ccc(NS(=O)(=O)CCCC)cc21 [Example 29, N-(1-(methyl-d3)-1H-indazol-6-yl)butane-1-sulfonamide]
MLM t1/2 ([16]; mouse liver microsomes): 16.8 min
